# In ChEMBL document CHEMBL1201862, “PubChem BioAssay data set” (2004):
#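 48-hour exposure; five concentrations; linearly interpolated endpoints. At the GI50, growth is halved.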 Activity calls are given as the source filed them. Cut-off read from the data, not from the text of the source: active = GI50 up to about 1.1 µM and inactive = higher.
# How the values were obtained:
# Test in all cases: inhibition of tumour cell growth, NCI panel, 48 h
# SW-620 = system: SW-620
# PC-3 = system: PC-3
# HOP-62 = system: HOP-62
# SF-295 = system: SF-295
# U-251 = system: U-251
# K562 = system: K562
# SK-OV-3 = system: SK-OV-3
# SF-268 = system: SF-268
# SR = system: SR
# 786-0 = system: 786-0
# MOLT-4 = system: MOLT-4
# SK-MEL-28 = system: SK-MEL-28
# OVCAR-8 = system: OVCAR-8
# UACC-62 = system: UACC-62
# HCT-116 = system: HCT-116
# SN12C = system: SN12C
# NCI-H460 = system: NCI-H460
# TK-10 = system: TK-10
# CCRF-CEM = system: CCRF-CEM
Compound,GI50 (SW-620),GI50 (PC-3),GI50 (HOP-62),GI50 (SF-295),GI50 (U-251),GI50 (K562),GI50 (SK-OV-3),GI50 (SF-268),GI50 (SR),GI50 (786-0),GI50 (MOLT-4),GI50 (SK-MEL-28),GI50 (OVCAR-8),GI50 (UACC-62),GI50 (HCT-116),GI50 (SN12C),GI50 (NCI-H460),GI50 (TK-10),GI50 (CCRF-CEM)
CC(=O)C1=C(C)O[C@@H]2O[C@H](COCc3ccccc3)[C@@H](OCc3ccccc3)[C@H](O)[C@@H]2S1,26.7 µM (inactive),26.2 µM (inactive),19.5 µM (inactive),13.8 µM (inactive),20.8 µM (inactive),19.7 µM (inactive),25.1 µM (inactive),15.2 µM (inactive),22 µM (inactive),25.1 µM (inactive),14 µM (inactive),27.7 µM (inactive),23 µM (inactive),15.5 µM (inactive),16.4 µM (inactive),19.2 µM (inactive),17.5 µM (inactive),19.1 µM (inactive),0.855 µM (active)
COc1cc(C2c3cc4c(cc3OC(N3CCNCC3)C2C)OCO4)cc(OC)c1OC (centres undefined),0.445 µM (active),0.456 µM (active),1.13 µM (inactive),0.234 µM (active),0.675 µM (active),0.413 µM (active),0.476 µM (active),0.836 µM (active),0.441 µM (active),0.746 µM (active),1.16 µM (inactive),2.85 µM (inactive),2.93 µM (inactive),0.516 µM (active),0.56 µM (active),2.59 µM (inactive),0.94 µM (active),20.7 µM (inactive),0.538 µM (active)
Cc1ccc(/C=C/C(=O)c2c([O-])on[n+]2-c2ccccc2)cc1,2.46 µM (inactive),4.72 µM (inactive),5.28 µM (inactive),7.74 µM (inactive),2.79 µM (inactive),3.68 µM (inactive),8.09 µM (inactive),4.35 µM (inactive),2.9 µM (inactive),1.83 µM (inactive),2.34 µM (inactive),2.26 µM (inactive),1.85 µM (inactive),1.72 µM (inactive),1.84 µM (inactive),3.79 µM (inactive),2.44 µM (inactive),2.95 µM (inactive),1.36 µM (inactive)
CCOC(=O)c1sc2nc1CSc1sc(=S)sc1SCc1nc(sc1C(=O)OCC)-c1nc(c(C(=O)OCC)s1)CSc1sc(=S)sc1SCc1nc-2sc1C(=O)OCC,> 10 µM (inactive),> 10 µM (inactive),> 10 µM (inactive),> 10 µM (inactive),> 10 µM (inactive),> 10 µM (inactive),> 10 µM (inactive),> 10 µM (inactive),> 10 µM (inactive),> 10 µM (inactive),> 10 µM (inactive),> 10 µM (inactive),> 10 µM (inactive),> 10 µM (inactive),> 10 µM (inactive),> 10 µM (inactive),> 10 µM (inactive),> 10 µM (inactive),> 10 µM (inactive)
O=[N+]([O-])c1ccc2nc(Cl)n[n+]([O-])c2c1,12.4 µM (inactive),13 µM (inactive),17.1 µM (inactive),22.7 µM (inactive),16.6 µM (inactive),1.15 µM (inactive),17.5 µM (inactive),14.1 µM (inactive),2.2 µM (inactive),8.3 µM (inactive),1.15 µM (inactive),18.3 µM (inactive),15.2 µM (inactive),14 µM (inactive),12.7 µM (inactive),16.1 µM (inactive),20.3 µM (inactive),16.8 µM (inactive),1.06 µM (active)
COc1ccc(S(=O)(=O)O)cc1NS(=O)(=O)c1ccc(C)cc1,> 100 µM (inactive),> 100 µM (inactive),> 100 µM (inactive),> 100 µM (inactive),> 100 µM (inactive),> 100 µM (inactive),> 100 µM (inactive),> 100 µM (inactive),> 100 µM (inactive),> 100 µM (inactive),> 100 µM (inactive),> 100 µM (inactive),> 100 µM (inactive),> 100 µM (inactive),> 100 µM (inactive),> 100 µM (inactive),> 100 µM (inactive),> 100 µM (inactive),> 100 µM (inactive)
